Experimental data published in patent US10189831B2, “Non-nucleoside reverse transcriptase inhibitors” (Merck Sharp & Dohme Corp., priority 2012, dated 2019).

Molecular target: HIV-1 RT wild-type enzyme (Human immunodeficiency virus type 1 group M subtype B (isolate HXB2) (HIV-1), UniProt P04585)
Assay: Determination of HIV-1 reverse transcriptase inhibitory activity (RT polymerase assay)
Assay type: biochemical
Details: HIV-1 RT wild-type enzyme 83 pM, RNA-dependent DNA polymerase reaction
Procedure: The heterodimeric nucleic acid substrate used in the HIV-1 RT polymerase reactions was generated by annealing the DNA primer, biotinylated pD500 (Sigma Aldrich, USA, 5′-biotin-ttg aaa tga ctg cgg tac ggc-3′), SEQ ID NO. 1 to the nucleotide RNA template t500 (derived from hepatitis C virus [HCV] sequence, IBA, Germany, 5′-[…]-3′), SEQ ID NO 2.). […] The mixture was then preincubated on an orbital shaker for 30 min at room temperature in microtiter plates (Costar 3365, Corning, USA). A polymerization reaction was initiated by the addition of RNA template/pD500 DNA primer hybrid (16.6 nM final of RNA/DNA hybrid) and dNTPs (2 μM dATP, dGTP, dCTP and 66.6 nM Ru-dUTP (Meso Scale Discovery, USA)). Plate was sealed and incubated for 5-10 min at room temperature on an orbital shaker. Plate was then incubated for 90 min at 37° C. and reactions quenched with 60 μl quenching buffer (50 mM EDTA, 0.7% BSA, 0.7% Tween-20, 0.017% sodium azide in PBS). […] After washing plate 3 times with 150 μL 1×PBS and blotting dry between cycles, 150 μL 1× Read Buffer T (4× Read Buffer T, Meso Scale Discovery) was added and incubated for 5 min at room temperature before counting on a Sector Imager S6000 (Meso Scale Discovery). Titration curves and IC50 values were calculated using a four parameter logistic fit according to standard procedures. […]

SMILES: CC(C)c1ccc(-c2cc(Cn3cnc(C(F)(F)F)c(Oc4cc(Cl)cc(C#N)c4)c3=O)n[nH]c2=O)cc1 [Example 49, 3-chloro-5-((1-((5-(4-isopropylphenyl)-6-oxo-1,6-dihydropyridazin-3-yl)methyl)-6-oxo-4-(trifluoromethyl)-1,6-dihydropyrimidin-5-yl)oxy)benzonitrile]
- IC50: 15 nM
